In PubChem BioAssay (NCI):
Where “and” joins values, the source holds several entries; their conditions need not be identical. Equal entries are not always repeated.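 Dose response: 5 concentrations. Exposure: 48 h. Format: 96-well plates. Endpoint: linear interpolation; highest concentration if not reached. GI50 marks 50% less growth. TGI is the concentration that stops growth completely.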

Tested on: M19-MEL melanoma
Experiment: growth of human tumour cells (NCI), 48 h

SMILES	TGI	GI50 [µM]
C[C@]12CCC(=O)C=C1CC[C@@H]1C2CC[C@]2(C)NC(=O)C(C#N)CC12 (some centres not stated)	> 100 µM	
O=S(=O)(O)C(O)/C=C/c1ccccc1 (configuration not stated)	> 100 µM	
C/C(=N\NC(N)=S)c1ccc(C)cc1C	> 100 µM	
OCc1c(-c2cccc3ccccc23)sc(-c2cccc3ccccc23)c1CO	29.4 µM	
CC1=CCCC(OC(N)=O)C1 (configuration not stated)	> 100 µM	
OCCNCO	> 100 µM	
CC(C)(C)C1=NC(S)NC(CCC(=O)Nc2ccccc2[N+](=O)[O-])=C1 (configuration not stated)	> 100 µM	
COc1cc2c(cc1O)[C@H](Cc1ccc(Oc3cc(C[C@H]4c5cc(OC)c(OC)cc5CCN4C)ccc3OC)cc1)NCC2	49.2 µM	
O=C1/C(=C/c2ccccc2)CN(C(=O)Oc2ccc(Cl)cc2)C/C1=C\c1ccccc1	2.41 µM	
COc1cc([C@@H]2c3cc4c(cc3[C@@H](NC(=O)c3cccc([N+](=O)[O-])c3)C3COC(=O)[C@@H]32)OCO4)cc(OC)c1O (some centres not stated)	> 100 µM	
Cc1c(C(=O)/C=C/c2cccc3ccccc23)[n+](=O)c2ccccc2n1[O-]	26.4 µM	
CN(C)c1ccc(/C=C2\C[N+](C)(C)C/C(=C\c3ccc(N(C)C)cc3)C2=O)cc1	30.3 µM	
O=C1NC(=O)C2C(=O)NC(=O)C1C2(c1ccccc1)c1ccc(Cl)cc1 (configuration not stated)	> 100 µM	
Cc1nc2nnc(C)n2c2c1C(=O)Nc1ccccc1N2	> 100 µM	
CC1=C[C@@H]2Cc3occc3C(C)(C)[C@@H]2CC1	31.2 µM	
CCCCCCCCCCCCCCC1OC(=O)c2ccccc21 (configuration not stated)	> 100 µM	

SMILES	TGI	GI50 [µM]
O=c1c(Cl)c(Cl)cnn1-c1ccccc1	11.7 µM and 8.03 µM	
O=c1[nH]c(=O)n(C2CC(O)C(CO)O2)cc1C#Cc1c(F)c(F)c(F)c(F)c1F (configuration not stated)	> 100 µM	
COC(=O)C(CC(=O)c1cc2c(cc1I)OCO2)Cc1cc(OC)c(OC)c(OC)c1I (configuration not stated)	> 100 µM	
COC(=O)c1c(OC)cccc1C(=O)O	> 100 µM	
Cc1cccc(C(C)(C)C)c1NC(=O)C(=O)Cc1nc2ccccc2s1	> 100 µM	
NC1(CCCCCCCCCCC(=O)O)CNCCNCCNCCNC1	> 100 µM	
CCCCn1/c(=N/C(=S)N(C)C)ss/c1=N\C(=S)N(C)C	> 100 µM	
O=C(O/N=C1/CCC/C1=C\c1ccccc1)c1ccc([N+](=O)[O-])cc1	> 100 µM	
CC(=O)/C=C/c1cccc(N=S)c1	18.3 µM	
C1CN2N3CCCC23C1 (configuration not stated)	> 100 µM	
O=C(Nc1ccccc1[N+](=O)[O-])c1ccccc1	> 100 µM	
C[Si](C)(C)c1ccc(CC2(Cc3ccc([Si](C)(C)C)cc3)CCNC2)cc1	3.64 µM	
CCC1CCC2CCCC(C)N12 (configuration not stated)	> 100 µM	
O=C(O)CCCc1ccc(N(CCCl)CCCl)cc1	51.8 µM and 238 µM	22.3
CC1CCC[P+](Cc2ccccc2)(c2ccccc2)CC1 (configuration not stated)	> 100 µM	

Tested on: HS 578T breast
Experiment: growth of human tumour cells (NCI), 48 h

SMILES	TGI	GI50 [µM]
COc1cc2c(c(O)c1C)C(=O)C(Cl)=CC2=O	97.4 µM	
CC1(C)N=C(N)N=C(N)N1c1ccc(CCCCc2ccc(S(=O)(=O)F)cc2Cl)c(Cl)c1	> 500 µM	
CN(C)c1ccc(/C=C2\C[N+](C)(C)C/C(=C\c3ccc(N(C)C)cc3)C2=O)cc1	> 100 µM	
O=c1c(Cl)c(Cl)cnn1-c1ccccc1	7.02 µM and 20.3 µM	
O=C(O)CCCc1ccc(N(CCCl)CCCl)cc1	570 µM and 312 µM	
CN(C)S(=O)(=O)Nc1ccccn1	> 100 µM	
COc1cc2c(c(OC)c1OC)-c1ccc(NCc3ccccc3)c(=O)cc1[C@@H](NC(C)=O)CC2	43 µM	0.362

Tested on: NCI/ADR-RES ovarian
Experiment: growth of human tumour cells (NCI), 48 h

SMILES	TGI	GI50 [µM]
COc1cc2c(c(O)c1C)C(=O)C(Cl)=CC2=O	66.7 µM	
CC1(C)N=C(N)N=C(N)N1c1ccc(CCCCc2ccc(S(=O)(=O)F)cc2Cl)c(Cl)c1	347 µM	
O=c1c(Cl)c(Cl)cnn1-c1ccccc1	3.97 µM	
O=C(O)CCCc1ccc(N(CCCl)CCCl)cc1	329 µM and 118 µM	39.4
CN(C)S(=O)(=O)Nc1ccccn1	> 100 µM	
COc1cc2c(c(OC)c1OC)-c1ccc(NCc3ccccc3)c(=O)cc1[C@@H](NC(C)=O)CC2	> 100 µM	18.7

Tested on: HOP-18 NSCLC
Experiment: growth of human tumour cells (NCI), 48 h

SMILES	TGI	GI50 [µM]
O=[N+]([O-])c1ccc(NSc2ccccc2)cc1	> 100 µM	
COc1ccc(N=Cc2cc(OC)c(OC)c(OC)c2)cc1	> 100 µM	
COc1cc2c(c(O)c1C)C(=O)C(Cl)=CC2=O	30.1 µM	
CN(C)CCNC(=O)c1cccc2nc3c(Cl)cccc3nc12	> 88 µM	
O=S(=O)(O)C(O)/C=C/c1ccccc1 (configuration not stated)	> 100 µM	
C/C(=N\NC(N)=S)c1ccc(C)cc1C	> 100 µM	
OCc1c(-c2cccc3ccccc23)sc(-c2cccc3ccccc23)c1CO	26.4 µM	
CC1=CCCC(OC(N)=O)C1 (configuration not stated)	> 100 µM	
CC(C)(C)C1=NC(S)NC(CCC(=O)Nc2ccccc2[N+](=O)[O-])=C1 (configuration not stated)	> 100 µM	
COc1cc2c(cc1O)[C@H](Cc1ccc(Oc3cc(C[C@H]4c5cc(OC)c(OC)cc5CCN4C)ccc3OC)cc1)NCC2	32.7 µM	
O=C1/C(=C/c2ccccc2)CN(C(=O)Oc2ccc(Cl)cc2)C/C1=C\c1ccccc1	36.6 µM	
Cc1c(C(=O)/C=C/c2cccc3ccccc23)[n+](=O)c2ccccc2n1[O-]	28.6 µM	
CC1(C)N=C(N)N=C(N)N1c1ccc(CCCCc2ccc(S(=O)(=O)F)cc2Cl)c(Cl)c1	121 µM	
CN(C)c1ccc(/C=C2\C[N+](C)(C)C/C(=C\c3ccc(N(C)C)cc3)C2=O)cc1	> 100 µM	
Cc1nc2nnc(C)n2c2c1C(=O)Nc1ccccc1N2	> 100 µM	
CC1=C[C@@H]2Cc3occc3C(C)(C)[C@@H]2CC1	54 µM	

SMILES	TGI	GI50 [µM]
CCCCCCCCCCCCCCC1OC(=O)c2ccccc21 (configuration not stated)	> 100 µM	
O=c1c(Cl)c(Cl)cnn1-c1ccccc1	22.8 µM and 21.9 µM	
COC(=O)C(CC(=O)c1cc2c(cc1I)OCO2)Cc1cc(OC)c(OC)c(OC)c1I (configuration not stated)	> 100 µM	
COC(=O)c1c(OC)cccc1C(=O)O	> 100 µM	
Cc1cccc(C(C)(C)C)c1NC(=O)C(=O)Cc1nc2ccccc2s1	> 100 µM	
C#CC(C)(C)Oc1cc(O)c2c(=O)c3ccccc3n(C)c2c1	> 100 µM	
CCCCn1/c(=N/C(=S)N(C)C)ss/c1=N\C(=S)N(C)C	> 100 µM	
O=C(O/N=C1/CCC/C1=C\c1ccccc1)c1ccc([N+](=O)[O-])cc1	> 100 µM	
CC(=O)/C=C/c1cccc(N=S)c1	> 100 µM	
C1CN2N3CCCC23C1 (configuration not stated)	> 100 µM	
O=C(Nc1ccccc1[N+](=O)[O-])c1ccccc1	> 100 µM	
C[Si](C)(C)c1ccc(CC2(Cc3ccc([Si](C)(C)C)cc3)CCNC2)cc1	9.12 µM	
CCC1CCC2CCCC(C)N12 (configuration not stated)	> 100 µM	
O=C(O)CCCc1ccc(N(CCCl)CCCl)cc1	> 70 µM and 267 µM	17.7
CC1CCC[P+](Cc2ccccc2)(c2ccccc2)CC1 (configuration not stated)	13 µM	

Tested on: DU-145 prostate
Experiment: growth of human tumour cells (NCI), 48 h

SMILES	TGI	GI50 [µM]
COc1cc2c(c(O)c1C)C(=O)C(Cl)=CC2=O	13.3 µM	
CC1(C)N=C(N)N=C(N)N1c1ccc(CCCCc2ccc(S(=O)(=O)F)cc2Cl)c(Cl)c1	90.4 µM	
CN(C)c1ccc(/C=C2\C[N+](C)(C)C/C(=C\c3ccc(N(C)C)cc3)C2=O)cc1	> 100 µM	
O=c1c(Cl)c(Cl)cnn1-c1ccccc1	28 µM and 27.8 µM	
O=C(O)CCCc1ccc(N(CCCl)CCCl)cc1	590 µM and 191 µM	41.7
CN(C)S(=O)(=O)Nc1ccccn1	> 100 µM	
COc1cc2c(c(OC)c1OC)-c1ccc(NCc3ccccc3)c(=O)cc1[C@@H](NC(C)=O)CC2	7.91 µM	0.374

Tested on: DMS 114 small cell lung
Experiment: growth of human tumour cells (NCI), 48 h

SMILES	TGI	GI50 [µM]
O=[N+]([O-])c1ccc(NSc2ccccc2)cc1	> 100 µM	
Cc1cccc2c3ccc4c(c3n(C)c12)C(=O)C=CC4=O	> 100 µM	
COc1ccc(N=Cc2cc(OC)c(OC)c(OC)c2)cc1	> 100 µM	
COc1cc2c(c(O)c1C)C(=O)C(Cl)=CC2=O	32.8 µM	
CN(C)CCNC(=O)c1cccc2nc3c(Cl)cccc3nc12	12.1 µM	
C[C@]12CCC(=O)C=C1CC[C@@H]1C2CC[C@]2(C)NC(=O)C(C#N)CC12 (some centres not stated)	> 100 µM	
O=S(=O)(O)C(O)/C=C/c1ccccc1 (configuration not stated)	> 100 µM	
OCc1c(-c2cccc3ccccc23)sc(-c2cccc3ccccc23)c1CO	22.8 µM	
CC(C)(C)C1=NC(S)NC(CCC(=O)Nc2ccccc2[N+](=O)[O-])=C1 (configuration not stated)	> 100 µM	
COc1cc2c(cc1O)[C@H](Cc1ccc(Oc3cc(C[C@H]4c5cc(OC)c(OC)cc5CCN4C)ccc3OC)cc1)NCC2	40.5 µM	
O=C1/C(=C/c2ccccc2)CN(C(=O)Oc2ccc(Cl)cc2)C/C1=C\c1ccccc1	3.68 µM	
Cc1c(C(=O)/C=C/c2cccc3ccccc23)[n+](=O)c2ccccc2n1[O-]	16.8 µM	
CC1(C)N=C(N)N=C(N)N1c1ccc(CCCCc2ccc(S(=O)(=O)F)cc2Cl)c(Cl)c1	16.4 µM	
CN(C)c1ccc(/C=C2\C[N+](C)(C)C/C(=C\c3ccc(N(C)C)cc3)C2=O)cc1	26.1 µM	
Cc1nc2nnc(C)n2c2c1C(=O)Nc1ccccc1N2	> 100 µM	
CC1=C[C@@H]2Cc3occc3C(C)(C)[C@@H]2CC1	35.9 µM	

SMILES	TGI	GI50 [µM]
CCCCCCCCCCCCCCC1OC(=O)c2ccccc21 (configuration not stated)	90.4 µM	
O=c1c(Cl)c(Cl)cnn1-c1ccccc1	5.76 µM and 3.09 µM	
O=c1[nH]c(=O)n(C2CC(O)C(CO)O2)cc1C#Cc1c(F)c(F)c(F)c(F)c1F (configuration not stated)	> 100 µM	
COC(=O)C(CC(=O)c1cc2c(cc1I)OCO2)Cc1cc(OC)c(OC)c(OC)c1I (configuration not stated)	> 100 µM	
COC(=O)c1c(OC)cccc1C(=O)O	> 100 µM	
Cc1cccc(C(C)(C)C)c1NC(=O)C(=O)Cc1nc2ccccc2s1	> 100 µM	
NC1(CCCCCCCCCCC(=O)O)CNCCNCCNCCNC1	> 100 µM	
C#CC(C)(C)Oc1cc(O)c2c(=O)c3ccccc3n(C)c2c1	> 100 µM	
O=C(O/N=C1/CCC/C1=C\c1ccccc1)c1ccc([N+](=O)[O-])cc1	> 100 µM	
CC(=O)/C=C/c1cccc(N=S)c1	> 66.1 µM	
C1CN2N3CCCC23C1 (configuration not stated)	> 100 µM	
O=C(Nc1ccccc1[N+](=O)[O-])c1ccccc1	> 100 µM	
C[Si](C)(C)c1ccc(CC2(Cc3ccc([Si](C)(C)C)cc3)CCNC2)cc1	3.87 µM	
CCC1CCC2CCCC(C)N12 (configuration not stated)	> 100 µM	
O=C(O)CCCc1ccc(N(CCCl)CCCl)cc1	32.4 µM and 179 µM	7.84
CC1CCC[P+](Cc2ccccc2)(c2ccccc2)CC1 (configuration not stated)	96.1 µM	
